Data reported in publication PMC9607266, “Drug–Drug Interaction Study to Evaluate the Pharmacokinetics, Safety, and Tolerability of Ipatasertib in Combination with Darolutamide in Patients with Advanced Prostate Cancer” (Pharmaceutics, 2022).
Like-named read-outs stand apart in the source and are kept apart here.

Columns and labels:
[1] = Phase Ib DDI study: plasma PK of darolutamide and keto-darolutamide at steady state in combination with ipatasertib; conditions: human
Protocol: This was an open-label, multicenter, Phase Ib study designed to assess the safety, tolerability, and the drug–drug interaction of the combined administration of 400 mg QD oral ipatasertib and 600 mg BID oral darolutamide. […] For this study, no prospective calculations of the statistical power were made; the sample size selected was based on a typical sample size used for DDI studies. […] Figure 1 presents an overview of the study design.
Plasma concentrations of ipatasertib and its metabolite M1 were determined using a previously reported, validated liquid chromatography–tandem mass spectrometry assay (LC-MS/MS). The lower and upper limit of the quantitation for ipatasertib and M1 was 0.500 ng/mL and 400 ng/mL, respectively. Stable labeled internal standards were used for both analytes. Plasma concentrations of darolutamide and keto-darolutamide were determined by a validated bioanalytical assay using supported liquid extraction and LC-MS/MS detection by Labcorp Early Drug Development Laboratories Inc. (Madison, WI, USA). […] The diastereomers of darolutamide, (S, R)-darolutamide, and (S, S)-darolutamide, were quantified as one entity from a single chromatographic peak. The MS/MS transitions monitored for detection were m/z 399.2 to 178.1 for darolutamide, m/z 397.1 to 136.0 for keto-darolutamide, and 478.2 to 221.0 for the internal standard apalutamide. […]

[2] = cited from earlier work
[3] = Phase Ib DDI study: plasma PK of ipatasertib and M1 after ipatasertib 400 mg QD alone and with darolutamide 600 mg BID; type: in vivo; conditions: male, human, oral
Protocol: (§1) Figure 1 presents an overview of the study design.
Stable labeled internal standards were used for both analytes.
Only median, min, and max were evaluated for Tmax.
Pharmacokinetic parameters (area under the curve (AUC0–tau) and Cmax,ss) were compared between Day 10 of Cycle 1 (ipatasertib alone, as the reference treatment) and Day 28 of Cycle 1 (combination of ipatasertib and darolutamide, as the test treatment) using SAS Version 9.4 by calculating geometric mean ratios and corresponding 90% confidence intervals (CIs) to evaluate the effect of darolutamide on the PK of ipatasertib and M1. A linear mixed model with a fixed effect for treatment and a random effect for patients was used on the natural log-transformed pharmacokinetic parameters. Point estimates for the means and point estimates and corresponding 90% confidence intervals (CIs) for the differences in means between the two treatments (reference and test treatments) were obtained from the linear mixed effects model and then exponentiated to obtain geometric means, geometric mean ratios, and respective 90% CIs on the original scale.

[4] = Phase Ib DDI study: safety and tolerability (adverse events, ECG); type: in vivo, human
Description: as §1
The primary objectives of the study were to characterize the effect of darolutamide on the PK of ipatasertib and its M1 (G-037720) metabolite when administered alone versus in combination with darolutamide and to evaluate the safety and tolerability of the ipatasertib–darolutamide combination. The PK endpoints of the study were to evaluate the plasma PK parameters of ipatasertib and its M1 metabolite and evaluate the PK of darolutamide and its metabolite keto-darolutamide at a steady state of the combination treatment and compare this to historical data. Medications known to impact the PK of ipatasertib or darolutamide (both CY3PA4 substrates) were refrained from being administered during the study conducted and accordingly not co-administered. The safety endpoints of the study were to evaluate the incidences, nature, and severity of AEs and laboratory abnormalities, changes in vital signs, exposure to the study treatment, and to evaluate the changes in ECG parameters with particular focus on the QT interval corrected through the use of Fridericia’s formula (QTcF). The study achieved the first patient first visit on 21 December 2020, and the cut-off date for primary PK and safety analysis presented within this manuscript was 31 August 2021.
The safety and tolerability assessments consisted of monitoring and recording AEs, including SAEs and AEs of special interest, clinical laboratory assessments, vital signs, a 12 lead ECG, and physical examination. The AEs were recorded from the first admission until the discontinuation of visits. The AE severity was graded from Grade 1 to Grade 5 as per the National Cancer Institute Common Terminology Criteria for Adverse Events version 5.0. The relationship between the AEs and the study drug was indicated as related or not related. The AE terms reported were coded using the standard Medical Dictionary for Regulatory Activities version 24.0’s preferred terms. In order to manage any drug-related toxicities, ipatasertib and darolutamide modifications were specified as follows: An ipatasertib dose could be reduced in decrements of 100 mg up to 200 mg (can be reduced to two dose levels) beyond which the patient must discontinue ipatasertib but may continue treatment with darolutamide. In the case of darolutamide, the dose could be reduced from 600 mg BID to 300 mg BID until symptoms improve. Treatment may then be resumed at a dose of 600 mg, twice daily. A dose reduction below 300 mg BID for darolutamide was not recommended.

[5] = cited from earlier work; remark: listed apart in the source
[6] = cited from earlier work; remark: listed apart in the source
[7] = test system: CYP3A4; set-up: method as in PMID 35428895; conditions: PBPK simulations, ipatasertib 400 mg QD; cited from earlier work
[8] = set-up: method as in PMID 27872130; conditions: cited from earlier work
[9] = test system: CYP3A4; conditions: in vitro studies; cited from earlier work
[10] = test system: CYP3A4; conditions: cited from earlier work
[11] = compared with enzalutamide and apalutamide; cited from earlier work
[12] = itraconazole, strong CYP3A4 and P-gp inhibitor, 100 mg ipatasertib
[13] = single-agent darolutamide from the literature, geometric mean (%CV)

For CC(=O)c1cc(C(=O)N[C@@H](C)Cn2ccc(-c3ccc(C#N)c(Cl)c3)n2)[nH]n1 [Keto-darolutamide, keto-darolutamide], the “Tmax,ss” value ([1]; in vivo) is given as 4.13 (1.00, 8.25) h, the “AUC0–12 h,ss” value ([2]; human, in vivo) is given as 82800 ng·h/mL and the “AUC0–t,ss” value ([2]; human, in vivo) is given as 82.8 (39.5) h·µg/mL. The “Cmax,ss” value ([2]; human, in vivo) was 9.4 (35.4) µg/mL and the “effective t1/2” value ([2]; human, in vivo) was “approximately 20 h”.

With CC(C)NC[C@@H](C(=O)N1CCN(c2ncnc3c2[C@H](C)C[C@H]3O)CC1)c1ccc(Cl)cc1 [Ipatasertib] the AUC ([3]; 400 mg, Reference = ipatasertib only, n = 13, linear mixed model, read-out: AUC0–tau,ss, Reference Geometric Mean) was 2610 ng·h/mL, the Cmax ([3]; 400 mg, Reference = ipatasertib only, n = 13, linear mixed model, read-out: Cmax,ss, Reference Geometric Mean) was 452 ng/mL and the Cmax ([3]; 400 mg, ipatasertib 400 mg QD alone, Cycle 1 Day 10, n = 14, geometric mean (%CV), read-out: Cmax,ss) was 462 ng/mL. For the same compound, the AUC ([3]; 400 mg, ipatasertib 400 mg QD alone, Cycle 1 Day 10, n = 14, geometric mean (%CV), tau = 24 h, mCRPC patients, read-out: AUC0–tau,ss) was 2660 ng·h/mL, the AUC ([3]; Test = ipatasertib with darolutamide, n = 13, linear mixed model, read-out: AUC0–tau,ss, Test Geometric Mean) was 2400 ng·h/mL and the Cmax ([3]; Test = ipatasertib with darolutamide, n = 13, linear mixed model, read-out: Cmax,ss, Test Geometric Mean) was 355 ng/mL. For the same compound, the AUC(0-t) ([3]; ipatasertib 400 mg QD alone, Cycle 1 Day 10, n = 14, geometric mean (%CV)) was 2670 ng·h/mL, the Tmax ([3]; ipatasertib 400 mg QD alone, Cycle 1 Day 10, n = 14, median (min, max)) was 1.04 h and the AUC(0-t) ([3]; ipatasertib 400 mg QD with darolutamide 600 mg BID, Cycle 1 Day 28, n = 13, geometric mean (%CV)) was 2400 ng·h/mL. It also gave a Cmax ([3]; ipatasertib 400 mg QD with darolutamide 600 mg BID, Cycle 1 Day 28, n = 13, geometric mean (%CV), read-out: Cmax,ss) of 355 ng/mL, an AUC ([3]; ipatasertib 400 mg QD with darolutamide 600 mg BID, Cycle 1 Day 28, n = 13, geometric mean (%CV), tau = 24 h, read-out: AUC0–tau,ss) of 2400 ng·h/mL and a Tmax ([3]; ipatasertib 400 mg QD with darolutamide 600 mg BID, Cycle 1 Day 28, n = 13, median (min, max)) of 2 h. The “Total number of deaths” value ([4]; N = 14) was 0, the “patients with at least one AE leading to discontinuation of darolutamide” value ([4]; male, human, in vivo) was 0 n (%) and the “patients with at least one AE leading to discontinuation of ipatasertib” value ([4]; male, human, in vivo) was 0 n (%). The “patients with at least one AE leading to dose interruption of darolutamide” value ([4]; male, human, in vivo) was 0 n (%), the “patients with at least one AE leading to dose interruption of ipatasertib” value ([4]; male, human, in vivo) was 0 n (%) and the “patients with at least one AE leading to dose reduction of darolutamide” value ([4]; male, human, in vivo) was 0 n (%). For the same compound, the “patients with at least one AE leading to dose reduction of ipatasertib” value ([4]; male, human, in vivo) was 0 n (%), the “patients with at least one AE related to any treatment” value ([4]; male, human, in vivo) was 1 (7.1) n (%) and the “patients with at least one AE related to darolutamide only” value ([4]; male, human, in vivo) was 0 n (%). For the same compound, the “patients with at least one AE related to ipatasertib only” value ([4]; male, human, in vivo) was 1 (7.1) n (%), the “patients with at least one Grade 5 AE” value ([4]; male, human, in vivo) was 0 n (%) and the “patients with at least one Grade ≥ 3 AE” value ([4]; male, human, in vivo) was 0 n (%). For the same compound, the “patients with at least one Serious AE” value ([4]; male, human, in vivo) was 0 n (%), the “patients with at least one: Any treatment discontinuation” value ([4]; male, human, in vivo) was 0 n (%) and the “patients with diarrhea of Grade 1” value ([4]; male, human, in vivo) was 7.1%. The time to steady-state ([5]; 400 mg QD dose) was ≤ 7 days, the “median time to maximum concentration (Tmax)” value ([5]; across 25–800 mg doses in patients with cancer) was 0.5 to 3 h and the “exposures following a high-fat meal versus fasted conditions” value [5] was “comparable”. The “median half-life (t1/2)” value ([5]; oral doses in the range of 200–800 mg, range 27.8–66.9 h) was 45.0 h, the “increase in exposures when combined with abiraterone” value ([6]; dedicated drug–drug interaction study) was “approximately 1.5 fold” and the “decrease in ipatasertib exposure when combined with enzalutamide” value ([6]; enzalutamide, strong CYP3A4 inducer) was “approximately 50%”. For the same compound, the “increase in AUC0–∞ when combined with itraconazole” value [6, 12] was 5.45 fold, the “increase in Cmax when combined with itraconazole” value [6, 12] was 2.26 fold and the “expected increase in midazolam exposure (AUC0–∞)” value [7] was “approximately 1.69 fold”. For the same compound, the “human plasma protein binding” value [8] was “low”, the “CYP3A4 inhibition in vitro” value [9] was “time-dependent inhibitor of CYP3A4” and the “increase in midazolam AUC0–∞ exposures” value ([10]; ipatasertib at 600 mg QD) was 2.22 fold.

For CNC(=O)c1ccc(N2C(=S)N(c3ccc(C#N)c(C(F)(F)F)c3)C(=O)C2(C)C)cc1F [enzalutamide], the “reduction of midazolam exposures” value ([10]; midazolam in combination with enzalutamide, strong CYP3A4 inducer) is listed as “approximately 85%”.

In the case of CC(O)c1cc(C(=O)N[C@@H](C)Cn2ccc(-c3ccc(C#N)c(Cl)c3)n2)[nH]n1 (stereo partly drawn) [Darolutamide], the Tmax ([1]; male, plasma, oral) is given as 4.23 h, the “increase in AUC0–∞ when combined with itraconazole” value ([6]; darolutamide with itraconazole) is given as 1.7 fold and the “increase in Cmax when combined with itraconazole” value ([6]; darolutamide with itraconazole) is given as 1.4 fold. The “penetration of the blood–brain barrier” value [11] was “lower penetration of the blood–brain barrier”, the “reduction of midazolam exposures” value ([10]; concomitant administration of darolutamide and midazolam) was ~ 29% and the “time to steady state” value ([2]; 600 mg BID) was 2 to 5 days. The “increase in bioavailability when administered with food” value [2] was 2.0- to 2.5 fold, the “effective t1/2” value ([2]; in patients) was “approximately 20 h” and the “time at which Cmax is reached” value ([2]; single 600 mg oral dose) was “approximately 4 h”. For the same compound, the “AUC0–t,ss” value [2, 13] was 52.82 (33.9) h·µg/mL, the “Cmax,ss” value [2, 13] was 4.79 (30.9) µg/mL and the “AUC0–12 h,ss” value ([2]; single-agent darolutamide) was 52820 ng·h/mL.
